Data reported in patent publication US10238713B2, “Cyclic tetrapeptides and therapeutic applications thereof” (LODZ UNIVERSITY OF TECHNOLOGY, priority 2010, dated 2019).
Non-standard residues stand in square brackets, D forms with d. Residues, ends and D or L forms follow the SMILES beside them. *: point of attachment. Bip = N[C@@H](Cc1ccc(-c2ccccc2)cc1)C(=O)O; β3hW = N[C@H](CC(=O)O)Cc1c[nH]c2ccccc12; Phe(4-F) = N[C@@H](Cc1ccc(F)cc1)C(=O)O; hPhe = N[C@@H](CCc1ccccc1)C(=O)O; β3hF = N[C@H](CC(=O)O)Cc1ccccc1; tBu = CC(C)(C)*

Tests used:
[1] = test system: PHA-induced proliferation of human peripheral blood mononuclear cells (PBMC); experiment: Proliferative response of PBMC to PHA (MTT); assay type: cell-based; settings: four-day incubation, FIGS. 9A-9F
Experimental: (§2) PBMC were isolated by centrifugation on Ficoll-uropoline gradient (density 1.077 g/ml) (Lymphoprep; PAA Laboratories), at 800×g for 20 min at 4° C. The interphase cells, consisting of lymphocytes (20%) and monocytes (80%) were then washed three times with Hanks' medium and re-suspended in the culture medium at density of 2×10^6 cells/ml.
The isolated PBMC were distributed into 96-well flat-bottom plates in 100 μl aliquots (2×10^5 cells/well). PHA was used at concentration of 5 μg/ml. The compounds were tested at concentrations of 1, 10 and 100 μg/ml. DMSO at appropriate dilutions served as control. After a four-day incubation in a cell culture incubator, the proliferative response of cells was determined by the colorimetric MTT method (Hansen et al., J. Immunol. Methods, 1989, pp. 203-210). The data are presented as a mean OD value from quadriplicate wells ±standard error (SE). The cultures “Control (−)” contained no mitogen (PHA). The cultures “Control (PHA)” contained PHA but not cyclic tetrapeptides.
Briefly, 25 μl of MTT (5 mg/ml) stock solution was added per well at the end of cell incubation and the plates were incubated for 3 h in a cell culture incubator. Then, 100 μl of the extraction buffer (20% SDS with 50% DMF, pH 4.7) was added. After additional overnight incubation, the optical density was measured at 550 nm (Dynatech 5000).

[2] = Solubility in the aqueous culture medium; assay type: physicochemical
Experimental: RPMI-1640 medium (Cibi/Life Technologies, UK), fetal calf serum (FCS, Gibco), DMSO, phytohemagglutinin A (PHA), lipopolysaccharide (LPS) from E. coli strain O111:B4 (Sigma), […]-2,5-diphenyltetrazolium bromide (MTT), SDS and DMF (Sigma). The culture medium consisted of RPMI-1640, 10% addition of FCS, L-glutamine, sodium pyruvate, 2-mercaptoetanol and antibiotics (streptomycin and penicillin). Cyclic tetrapeptides were initially dissolved in DMSO (5 mg/ml), the dissolved in the culture medium to the desired concentration.
The effects of the peptides on PMBC survival in 24h culture are presented in FIGS. 8A, 8B, 8C, 8D, 8E and 8F. Peptide 4B8M (compound I-A) was included as a reference compound. Appropriate dilutions of DMSO were added to control cultures. […] In the figures, P01=compound I-D, P02=compound I-E, P03=compound I-F, P04=compound I-G, P05=compound I-H, P06=compound I-J, P07=compound I-K, P08=compound I-L, P10a=compound I-M, P10b=compound I-N, P11=compound I-O, P21=compound I-R, P-21b=compound I-Q, P22=compound I-S, P23-2=compound I-U, P24=compound I-V, P25=compound I-X, P25-i=compound I-W, P26=compound I-Y, P27=compound I-Z, P28=compound I-AA, P29=compound I-AB, P30=compound I-AC, P31=compound I-AD, P32=compound I-AE, P33=compound I-AG, P33-b=compound I-AF, P34=compound I-AH, P35=compound I-AI, P00S-b=compound I-AJ, SP00-b=compound I-AL.

[3] = test system: mice, carrageenan air pouch; experiment: Carrageenan air-pouch test (exudate cell number); assay type: in vivo, mouse; settings: peptides 100 μg i.p. one hour before carrageenan, 24 h; FIGS. 18A-18B
Experimental: (§1) In this and the air-pouch test, 1.5 mg peptide was dissolved in 300 μl of DMSO, then in 0.9% NaCl to achieve the desired dose (250 μg/0.2 ml or 100 μg/0.2 ml). Carrageenan (Sigma) was dissolved in 0.9% aqueous NaCl (overnight). 50 μl of 2% carrageenan solution was injected intradermally into hind foot pads. The peptides were given in a single 250 μg dose (0.2 ml) per mouse intraperitoneally (i.p.), 30 min before carrageenan administration. Dexamethasone (DEX) (Dexaven, Polfa, Poland), a reference drug, was given i.p. in dose 25 μg per mouse. Control mice were administered i.p. appropriately diluted solvent (DMSO in aqueous NaCl) instead of peptides. The foot pads of “background” (BG) mice were injected with 50 μl of 0.9% aqueous NaCl. Foot pad edema was measured with a spring caliper, 2 h, 3 h and 4 h after administration of carrageenan. The results are presented in FIGS. 17A, 17B and 17C as mean values of the antigen-specific increase of the foot pad thickness measured in 5 mice in each experimental group and expressed in mm ±SE (only results from measurements 4 h following administration of carrageenan are presented in figures). Statistics: FIG. 17A: Control vs: DEX P=0.0001; 4B8M P=0.0001; P25 NS (P=1.0000); P28 NS (P=1.0000); P31 NS (P=0.0528); P35 P=0.0008 (ANOVA of Kruskal-Wallis); FIG. 17B: Statistics: Control vs: P22 NS (P=1.0000); P26 NS (P=1.0000); P27 P=0.0050; P30 P=0.0004; P33-b NS (P=1.0000); SP00-b P=0.0001; P00S-b NS (P=1.0000) (ANOVA of Kruskal-Wallis); FIG. 17C: Statistics: Control vs: P21 P=0.0147; P23-2 P=0.0083; P24 P=0.0001; P29 NS (P=0.9999); P32 P=0.0001; P33 NS (P=0.6806); P34 NS (P=0.1920) (ANOVA).
Air pouches were formed by subdermal injection into the dorsal region (in a halothane anesthesia) of 5 cm^3 of air (needle 23G x 11/4, 5 ml syringe). On day 3 the air pouches were given an additional 2 ml of air and an inflammatory process was elicited by an intra-pouch injection of 1% of carrageenan in 0.5 ml of 0.9% aqueous NaCl. The peptides were given i.p. at a dose of 100 μg one hour before carrageenan injection into the air pouch. The mice from the “background” (BG) group were given 0.9% aqueous NaCl i.p. and 0.9% aqueous NaCl into the air pouches. Control mice were given appropriately diluted DMSO i.p. and carrageenan into the air pouches. 24 h after carrageenan injection, the mice were sacrificed by cervical dislocation, the air pouches were supplemented with 1 ml of 0.9% aqueous NaCl and the exudates from the air pouches were aspirated using a syringe. The exudates were diluted with 0.9% aqueous NaCl and the cells were counted in a Bürker hemocytometer. Data are presented in FIGS. 18A and 18B as the mean values from 10 mice/group (cell number×10^6 per mouse) ±SE. Then the cells were centrifuged and 0.1 ml of the supernatant was saved for TNF-α determination (see Determination of TNF-α activity, above). The cell pellets were used to perform smears on microscopic glasses, which were stained with Giemsa and May-Grünwald reagents for evaluation of mast cell degranulation. Cell analysis was performed by a histologist using a light microscope and 1000× magnification. The content of intact and degranulated mast cells is given in percentage (mean values from 10 mice/group) ±SE. Statistics: FIG. 18A: BG vs Control P=0.0000; Control vs: DEX P=0.0034; 4B8M P=0.0005; P22 NS (P=0.7275); P26 P=0.0032; P27 NS (P=0.0659); P35 NS (P=1.0000) (ANOVA of Kruskal-Wallis); FIG. 18B: Control vs: P21 NS (P=0.322); P23-2 P=0.0020; P24 P=0.0001; P25 P=0.0418; P28 NS (P=0.3502); P29 NS (P=0.0582); P30 P=0.0006; P31 P=0.0078; P32 P=0.0340; P33 NS (P=0.9993); P34 NS (p=0.0566) (ANOVA).

human PBMC = experiment: Toxicity test: PBMC survival in 24 h culture (MTT); settings: ANOVA, FIGS. 8A-8F (4B8M repeated per figure)
Experimental: as §2
Appropriate dilutions of DMSO in RPMI 1640 medium were used as controls. Cell survival was determined by the MTT colorimetric method (Hansen et al., J. Immunol. Methods, 1989, pp. 203-210). The data are presented as a mean OD value from quadriplicate wells ±standard error (SE). The cultures “Control (−)” contained only cells in the culture medium.
The assay was performed per Hansen et al., J. Immunol. […] Briefly, 25 μl of MTT (5 mg/ml) stock solution was added per well at the end of cell incubation and the plates were incubated for 3 h in a cell culture incubator. Then, 100 μl of the extraction buffer (20% SDS with 50% DMF, pH 4.7) was added. After additional overnight incubation, the optical density was measured at 550 nm (Dynatech 5000).

[4] = test system: mice, carrageenan-induced foot pad edema; experiment: Carrageenan-induced foot-pad edema test; assay type: in vivo, mouse; settings: 4 h after carrageenan; peptides 250 μg i.p., DEX 25 μg i.p., 30 min before; FIGS. 17A-17C
Experimental: as §1

[5] = test system: concanavalin A-induced mouse splenocyte proliferation; experiment: Proliferative response of splenocytes to concanavalin A (MTT); assay type: cell-based
Experimental: Spleens were pressed against a plastic screen into 0.83% NH4Cl solution to lyse erythrocytes (5 min incubation at room temperature). The cells were then washed twice with Hanks' medium, passed through glass wool column to remove debris, and re-suspended in the culture medium, referred to below as the “culture medium”, consisting of RPMI-1640, supplemented with 10% of fetal calf serum, L-glutamine, sodium pyruvate, 2-mercaptoethanol, streptomycin and penicillin (100 μg/ml). The cells were then distributed into 96-well flat-bottom tissue culture plates (Nunc) at a density of 2×10^5 cells/100 μl/well. Con A (2.5 μg/ml) was added to induce cell proliferation. The compounds were added to the cultures at doses of 1-100 μg/ml. After a three-day incubation, cell proliferation was determined using the colorimetric MTT method (Hansen M B, J Immunol Methods, 1989, 119, 203-210). The results were presented as the mean optical density (OD) at 550 nm ±SE from quadriplicate determinations (wells).

splenocytes = experiment: Toxicity test on splenocytes (24 h, MTT); assay type: cell-based, mouse; settings: 100 μg/ml (printed 100 μg/m for I-C)
Experimental: Cell survival was determined by MTT colorimetric method. The results were presented as mean optical density (OD) at 550 nm from 4 wells. The viability of cells in respective compound concentrations was compared to appropriate DMSO control groups (100% survival), corresponding to respective compound concentrations.

[6] = test system: mouse splenocyte cultures, humoral immune response to SRBC; experiment: Secondary humoral immune response in vitro to SRBC (AFC number); assay type: cell-based
Experimental: Mice were sensitized intraperitoneally with 0.2 ml of 5% (v/v) SRBC suspension. After four days spleens from these mice were isolated and single cell suspensions prepared by homogenization in PBS solution. After washing the cells in PBS by centrifugation, the cells were re-suspended in the culture medium at a density of 5×10^6 cells/ml. The cells were subsequently distributed to 24-well culture plates in 1 ml aliquots and 0.05 ml of 0.005% SRBC was added as the antigen to each well. The compounds were added to the cultures at the beginning of the four-day incubation period at concentration ranges of 1-100 μg/ml. The number of antibody-forming cells (AFC) in the cultures was determined using a method of local hemolysis in agar gel according to Mishell et al., J Exp Med, 1967, 126, 423-442.

Row | SMILES | PHA-induced PBMC proliferation, P vs DMSO at appropriate dilution ([1]; 10 μg/ml) | PHA-induced PBMC proliferation, P vs DMSO at appropriate dilution ([1]; 100 μg/ml) | solubility in the aqueous culture medium [2] | air pouch exudate cell number, P vs Control [3] | PBMC survival, P vs DMSO at appropriate dilution (human PBMC; 10 μg/ml) | PBMC survival, P vs DMSO at appropriate dilution (human PBMC; 100 μg/ml) | foot pad edema (increase of foot pad thickness), P vs Control [4] | effect on concanavalin A-induced splenocyte proliferation ([5]; 100 μg/ml) | effect on concanavalin A-induced splenocyte proliferation ([5]; lower concentrations (below 100 μg/ml)) | toxicity to splenocytes (splenocytes) [%] | suppression of in vitro humoral immune response to SRBC ([6]; 10 μg/m as printed) [%] | suppression of in vitro humoral immune response to SRBC ([6]; 100 μg/m as printed) [%] | effect on concanavalin A-induced mouse splenocyte proliferation ([5]; 50-100 μg/ml)
1 | O=C1C[C@H](Cc2c[nH]c3ccccc23)NC(=O)[C@@H]2CCCN2C(=O)[C@@H]2CCCN2C(=O)[C@H](Cc2ccccc2)N1 [I-AE] (cyclo(FPP[β3hW])) | 0.0127 | 0.0023 | incomplete solubility | 0.0340 | 0.9954 | 0.9984 | 0.0001 | – | – | – | – | – | –
2 | O=C1C[C@H](Cc2ccccc2)NC(=O)[C@@H]2CCCN2C(=O)[C@@H]2CCCN2C(=O)[C@H](Cc2ccc(-c3ccccc3)cc2)N1 [I-AH] (cyclo([Bip]PP[β3hF])) | – | 0.001861 | incomplete solubility | 0.0566 | 0.0005 | 0.0001 | 0.1920 | – | – | – | – | – | –
3 | O=C1C[C@H](Cc2ccccc2)NC(=O)[C@@H]2CCCN2C(=O)[C@@H]2CCCN2C(=O)[C@H](CCc2ccccc2)N1 [I-AI] (cyclo(PP[β3hF][hPhe])) | – | 1.0000 | incomplete solubility | 1.0000 | 0.0222 | 1.0000 | 0.0008 | – | – | – | – | – | –
4 | CC(C)(C)OC[C@@H]1NC(=O)[C@@H]2CCCN2C(=O)[C@H](Cc2ccccc2)NC(=O)C[C@H](Cc2ccccc2)NC1=O [I-AJ] (cyclo(FPS(tBu)[β3hF])) | 1.0000 | 0.7035 | incomplete solubility | – | 0.9962 | 0.9250 | 1.0000 | – | – | – | – | – | –
5 | O=C1N[C@@H](Cc2ccccc2)CC(=O)N2CCC[C@H]2C(=O)N2CCC[C@H]2C(=O)N[C@H]1Cc1ccccc1 [I-B] (cyclo(F[β3hF]PP)) | – | – | – | – | – | – | – | weak antiproliferative effect | no such effect was observed | 30 | – | – | –
6 | O=C1C[C@H](Cc2ccccc2)NC(=O)[C@@H]2CCCN2C(=O)[C@@H]2CCCN2C(=O)C[C@H](Cc2ccccc2)N1 [I-C] (cyclo(PP[β3hF][β3hF])) | – | – | – | – | – | – | – | – | – | 70 | 33 | 80 | strong inhibitory effect
7 | O=C1C[C@H](Cc2ccccc2)NC(=O)[C@@H]2CCCN2C(=O)[C@@H]2CCCN2C(=O)[C@H](Cc2ccc(F)cc2)N1 [I-X] (cyclo(PP[β3hF][Phe(4-F)])) | – | 1.0000 | incomplete solubility | 0.0418 | 0.8597 | 0.0001 | 1.0000 | – | – | – | – | – | –
